The source made the active and inactive calls.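 How the source made its calls: active means fitted half-maximal concentration for changing background-corrected GFP signal at or below a set limit; inactive means the rest.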
assay: modulators of MEP2-GFP levels in yeast, dose response, S. cerevisiae, flow cytometry GFP, MLPCN hits (AID 2742);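 further: GFP tag reports level of MEP2 protein as a downstream target of TOR signalling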; conditions: S. cerevisiae MEP2-GFP strain, flow cytometry fluorescence, 3 h; at 33 µM (top of the series)

SMILES	GFP fluorescence (kMESF), higher = increase
O/C=c1\ccc2cccc3nc(C(F)(F)F)nc1c23	14.3 kMESF (inactive)
O=C(Sc1cccc2cccnc12)c1ccccc1Br	4.93 kMESF (inactive)
O=C(NC(=S)NNC(=O)[C@H]1C[C@@H]1c1ccccc1)c1cccc(F)c1	7.02 kMESF (inactive)
CCCc1cc(NCc2ccccn2)n2nc(C)c(-c3ccccc3)c2n1	2.86 kMESF (inactive)
CCOc1ccccc1/C=c1\sc2ncnn2c1=O	4.47 kMESF (inactive)
Cc1ccccc1OCCOC(=O)c1ccc(S(=O)(=O)N2CCCC2)cc1	1.52 kMESF (inactive)
O=C(O)c1cc[c]([Hg][Cl])cc1	4.47 kMESF (inactive)
N=C1S/C(=C\c2ccco2)C(=O)N1c1nccs1	4.56 kMESF (inactive)
CS(=O)(=O)N1N=C(c2ccccc2)CC1c1ccc2c(c1)OCO2 (stereo not given)	78.8 kMESF (inactive)
COc1ccc([N+](=O)[O-])c(S(=O)(=O)c2ccccc2)n1	3.41 kMESF (inactive)
COC(=O)CCC(=O)OC1(C)C(=O)C2=COC(c3ccc(OC)cc3)=CC2=C(Br)C1=O (stereo not given)	0.26 kMESF (inactive)
O=c1c2sc(-c3ccccc3)cc2nc2n1CCC2	3.03 kMESF (inactive)
O=C(Nc1ccc(N2CCOCC2)cc1)C1CCN(S(=O)(=O)c2ccc3c(c2)OCCO3)CC1	2 kMESF (inactive)
CC(C)(C)C(=O)C(Cl)C(=O)Nc1ccccc1 (stereo not given)	4.12 kMESF (inactive)
O=C(/C=C/c1cccc(Cl)c1)c1nc2ccccc2[nH]1	3.3 kMESF (inactive)
Cc1ccc(-c2nn(C(C)(C)C)c3ncnc(N)c23)cc1	6.01 kMESF (inactive)
CCCCC(=O)NC(=S)NNC(=O)CCc1ccccc1	3.11 kMESF (inactive)
O=c1oc2cc(Oc3c([N+](=O)[O-])cc(C(F)(F)F)cc3[N+](=O)[O-])ccc2c2c1CCCC2	4.77 kMESF (inactive)
Cc1ccc(C(c2cc(Cl)c3cccnc3c2O)N2CCN(C)CC2)cc1 (stereo not given)	3.22 kMESF (inactive)
COc1ccc(C(c2c(C)[nH]n(C(N)=S)c2=O)C(C#N)C#N)cc1 (stereo not given)	4.93 kMESF (inactive)

SMILES	GFP fluorescence (kMESF), higher = increase
Cc1nc2ccc(NC(=O)c3oc4ccc(F)cc4c3C)cc2s1	2.07 kMESF (inactive)
O=C(OCn1ncc(Br)c(Br)c1=O)c1ccccc1Cl	4.8 kMESF (inactive)
CN(C)c1ccc(/C=C/c2cc[n+](C)cc2)cc1	2.76 kMESF (inactive)
CN(C)c1ccc(N=Cc2nc(-c3ccccc3)oc2OC(=O)c2ccccc2)cc1	3.17 kMESF (inactive)
CCN(CC)C(=S)SSC(=S)N(CC)CC	5.19 kMESF (inactive)
C/C(=N\NC(=O)c1cc2ccccc2cc1O)c1ccccn1	3.61 kMESF (inactive)
O=C1CCN(S(=O)(=O)c2ccccc2)CCN1CCOCc1ccc(F)cc1	1.97 kMESF (inactive)
C#CCOCCOCCOCCNc1nc(N2CCN(C(=O)CCCCCCCCCCNC(=O)[C@H](CCCCN)n3cc(CCCC(=O)O)nn3)CC2)nc(N2CCN(C(=O)CCCCCCCCCCNC(=O)[C@H](CCCN=C(N)N)n3cc(C[C@@H](C)CC)nn3)CC2)n1	3.78 kMESF (inactive)
COc1ccc(CCNC2=C(Cl)C(=O)N(CCc3ccccc3)C2=O)cc1OC	2.6 kMESF (inactive)
O=[N+]([O-])c1cc(F)c2cccnc2c1O	5.96 kMESF (inactive)
O=C1C=CC(=O)N1c1ccc(O)cc1	6.77 kMESF (inactive)
CCc1sc(C(=O)Nc2nc(-c3ccccn3)cs2)cc1C	5.26 kMESF (inactive)
CCOC(=O)Cn1cc(/C=C/[N+](=O)[O-])c2ccccc21	4.22 kMESF (inactive)
Cc1ccccc1C(=O)NNC(=S)NC(=O)c1ccc(Cl)cc1Cl	6.21 kMESF (inactive)
O=C(C#Cc1ccccc1)c1ccco1	5.37 kMESF (inactive)
O=C(/C=C/Sc1ncn[nH]1)c1ccc(Cl)cc1	4.24 kMESF (inactive)
O=C(/C=C/c1ccc(Cl)c([N+](=O)[O-])c1)c1cccnc1	3.17 kMESF (inactive)
Cc1ccc2nc(Cl)c3nnnn3c2c1	4.36 kMESF (inactive)
N#C/C(=C\c1ccccn1)c1nc2ccccc2s1	58.7 kMESF (inactive)
c1ccc(-c2cccc(-c3ccccn3)n2)nc1	2.86 kMESF (inactive)

SMILES	GFP fluorescence (kMESF), higher = increase
O=C1NC(=O)N(Cc2ccco2)C(=O)/C1=C/c1ccc(-c2cccc([N+](=O)[O-])c2)o1	4.33 kMESF (inactive)
Cc1ccc(C(=O)Sc2cccccc2=O)cc1	3.82 kMESF (inactive)
Cc1cccnc1Nc1nc(-c2ccccn2)cs1	2.08 kMESF (inactive)
CN(C)c1ccc(N=Cc2nc(-c3ccccc3)oc2OC(=O)c2cccc(Cl)c2)cc1	3.27 kMESF (inactive)
CCN(CC)c1ccc2cc(-c3nc(-c4ccc(OC)cc4)cs3)c(=O)oc2c1	0.72 kMESF (inactive)
Cc1ccccc1[C@@]1(C)ON(c2ccccc2C(F)(F)F)C1=O	3.31 kMESF (inactive)
O=c1oc2ccccc2c(O)c1[C@H]1c2ccc(O)cc2Oc2c1c(=O)oc1ccccc21	4.67 kMESF (inactive)
ClC(Cl)(c1nnnn1-c1ccccc1)c1nnnn1-c1ccccc1	4.4 kMESF (inactive)
O=C(/C=C/c1cccc([N+](=O)[O-])c1)c1ccc([N+](=O)[O-])o1	3.51 kMESF (inactive)
O=C1C=CC(=O)N1c1cccc(-c2ccccc2)c1	5.31 kMESF (inactive)
O=[N+]([O-])c1ccc(O)c(/C=N/Nc2ccccn2)c1	5.62 kMESF (inactive)
CCn1c(/C=C/c2ccc([N+](=O)[O-])o2)nc2ccccc2c1=O	2.26 kMESF (inactive)
CCOC(=O)CSC1=NC(=O)/C(=C\c2ccc(Cl)cc2)S1	4.12 kMESF (inactive)
C#CCOCCOCCOCCNc1nc(N2CCN(C(=O)CCCCCCCCCCNC(=O)[C@@H](CCC(=O)O)n3cc(CCCCCN)nn3)CC2)nc(N2CCN(C(=O)CCCCCCCCCCNC(=O)[C@H](CCCCN)n3cc(C[C@@H](C)CC)nn3)CC2)n1	3.84 kMESF (inactive)
COCCN1C(=O)/C(=C/c2ccc(N3CCCC3)cc2C)SC1=S	7.22 kMESF (inactive)
Cc1ccc(S(=O)(=O)ON2C(=O)c3ccccc3C2=O)c(C)c1	5.06 kMESF (inactive)
CCCc1ccc(OCC(=O)NNC(=S)NC(=O)c2ccco2)cc1	9.05 kMESF (inactive)
Cc1sc(/C=C2\C(=O)ON=C2c2ccccc2)cc1Br	1.67 kMESF (inactive)
O=C1C(=O)c2ccccc2-c2ccccc21	2.76 kMESF (inactive)
O=C1c2sc3nc4ccccc4n3c2C(=O)N1c1ccccc1Cl	3.06 kMESF (inactive)
